≈ marks a conversion by molar mass, not a printed value.

In data set [1] the test system is PA-1. Description: Cytotoxic activity against Homo sapiens (human) PA1 cells incubated for 4 hr followed by compound wash-out measured after doubling time by MTT assay. It counts as functional, cell-based. For orientation: Tetrazolium assays rely on reduction of a dye to a coloured formazan, in cell work by metabolically active cells.
Data set [2] deals with WRL68. As to the kind of experiment: Cytotoxic activity against Homo sapiens (human) WRL68 cells incubated for 4 hr followed by compound wash-out measured after doubling time by MTT assay. It counts as functional, cell-based.
Data set [3] deals with COLO 320. As to the kind of experiment: Cytotoxic activity against Homo sapiens (human) COLO320 cells incubated for 4 hr followed by compound wash-out measured after doubling time by MTT assay. It is filed as functional, cell-based.
The subject of data set [4] is MCF7. Description: Cytotoxic activity against Homo sapiens (human) MCF7 cells incubated for 4 hr followed by compound wash-out measured after doubling time by MTT assay. It is filed as functional, cell-based.
For data set [5], the system named is Caco-2. Description: Cytotoxic activity against Homo sapiens (human) Caco2 cells incubated for 4 hr followed by compound wash-out measured after doubling time by MTT assay. It is filed as functional, cell-based.
Data set [6] relates to Bacopa monnieri. As to the kind of experiment: Toxicity against Bacopa monnieri assessed as shoot elongation at 50 ug/ml after 15 days by Bacopa sensor test (reference value: 0.8 cm). It is filed as organism-based. The conditions noted are these: in vivo, 360 h.
Data set [7] concerns Caco-2. Description: Cytotoxic activity against Homo sapiens (human) Caco2 cells by clonogenic assay. It counts as functional, cell-based.
Data set [8] has as its system Bacopa monnieri. Description: Toxicity against Bacopa monnieri assessed as number of shoots at 50 ug/ml after 15 days by Bacopa sensor test (reference value: 2). It is filed as organism-based. Conditions: in vivo, 360 h; call rule not given here.
Data set [9] concerns PA-1. Description: Cytotoxic activity against Homo sapiens (human) PA1 cells by clonogenic assay. It counts as functional, cell-based.
Data set [10] relates to MCF7. As to the kind of experiment: Cytotoxic activity against Homo sapiens (human) MCF7 cells by clonogenic assay. It counts as functional, cell-based.
In data set [11] the test system is COLO 320. Description: Cytotoxic activity against Homo sapiens (human) COLO320 cells by clonogenic assay. It is filed as functional, cell-based.
Data set [12] deals with Bacopa monnieri. As to the kind of experiment: Toxicity against Bacopa monnieri assessed as change in leaf colour at 50 ug/ml after 15 days by Bacopa sensor test. It counts as organism-based. The conditions noted are these: in vivo, 360 h.
The subject of data set [13] is Bacopa monnieri. Description: Toxicity against Bacopa monnieri assessed as number of leaves at 50 ug/ml after 15 days by Bacopa sensor test (reference value: 6). Conditions: in vivo, 360 h. It counts as organism-based.
Data set [14] has as its system WRL68. As to the kind of experiment: Cytotoxic activity against Homo sapiens (human) WRL68 cells by clonogenic assay. It counts as functional, cell-based.
Data set [15] has as its system Bacopa monnieri. Description: Toxicity against Bacopa monnieri assessed as number of roots at 50 ug/ml after 15 days by Bacopa sensor test (reference value: 2). It counts as organism-based. The conditions noted are these: in vivo, 360 h.
Data set [16] concerns COLO 320. As to the kind of experiment: Ratio of vinblastine IC50 to compound IC50 for Homo sapiens (human) COLO320 cells by MTT assay. It is filed as functional.
Data set [17] relates to Caco-2. As to the kind of experiment: Ratio of vinblastine IC50 to compound IC50 for Homo sapiens (human) Caco2 cells by MTT assay. It is filed as functional.
The subject of data set [18] is WRL68. Description: Ratio of vinblastine IC50 to compound IC50 for Homo sapiens (human) WRL68 cells by MTT assay. It counts as functional.
The mark [19] stands for this setting: Homo sapiens, PA-1, 4 h, read-out: IC50.
[20] abbreviates: Homo sapiens, WRL68, 4 h, read-out: IC50.
[21] abbreviates: Homo sapiens, COLO 320, 4 h, read-out: IC50.
Where [22] appears, read: Homo sapiens, MCF7, 4 h, read-out: IC50.
The mark [23] stands for this setting: Homo sapiens, Caco-2, 4 h, read-out: IC50.

For `C=CC(=O)OC[C@H]1O[C@@H](O[C@@H]2OC=C(C(=O)OC)[C@H]3C[C@H](OC(C)=O)[C@H](C)[C@@H]23)[C@H](OC(C)=O)[C@@H](OC(C)=O)[C@@H]1OC(C)=O`, the IC50 result in the data set on PA-1 [1] (pa-1), with WRL68 [2] (wrl68), with COLO 320 [3] (colo 320), in the data set on MCF7 [4] (mcf7) and in the data set on Caco-2 [5] (caco-2) was “Not Active” in each case.
Consider `COC(=O)C1=CO[C@@H](O[C@@H]2O[C@H](COC(=O)C=C(C)C)[C@@H](OC(C)=O)[C@H](OC(C)=O)[C@H]2OC(C)=O)[C@@H]2[C@@H](C)[C@@H](OC(C)=O)C[C@H]12`, for which the Activity with Bacopa monnieri [6] was 0.4 cm; in the data set on Bacopa monnieri [8] it was 2; in the data set on Bacopa monnieri [12], “Non-toxic”; in the data set on Bacopa monnieri [13], 6; in the data set on Bacopa monnieri [15], 2. Besides, the IC50 turned out to be 0.65 µg/mL (≈ 1.01 µM) in the data set with PA-1 [1] (setting [19]); 6.2 µg/mL (≈ 9.68 µM) with Caco-2 [7]; 1.2 µg/mL (≈ 1.87 µM) with WRL68 [2] (setting [20]); 1.84 µg/mL (≈ 2.87 µM) with PA-1 [9]; 4.65 µg/mL (≈ 7.26 µM) in the data set with MCF7 [10]; 2.84 µg/mL (≈ 4.43 µM) with COLO 320 [11]. The half-maximal inhibitory concentration (IC50) in the data set with COLO 320 [3] (setting [21]) was determined as 0.08 µg/mL (≈ 0.125 µM); in the data set with MCF7 [4] (setting [22]), 1 µg/mL (≈ 1.56 µM); in the data set with Caco-2 [5] (setting [23]) it was 0.8 µg/mL (≈ 1.25 µM); in the data set with WRL68 [14], 3.86 µg/mL (≈ 6.03 µM).
With `COC(=O)C1=CO[C@@H](O[C@@H]2O[C@H](COC(=O)c3cc(OC)c(OC)c(OC)c3)[C@@H](OC(C)=O)[C@H](OC(C)=O)[C@H]2OC(C)=O)[C@@H]2[C@@H](C)[C@@H](OC(C)=O)C[C@H]12`, the figures for the “Ratio IC50” value in the data set on COLO 320 [16], with Caco-2 [17] and in the data set on WRL68 [18] were 13, 8 and 3, respectively. Also, the Activity with Bacopa monnieri [6] is 0.4 cm; in the data set on Bacopa monnieri [8] it was 2; in the data set on Bacopa monnieri [12], “Non-toxic”; with Bacopa monnieri [13] it was 4; with Bacopa monnieri [15] it was 2. Moreover, the IC50 in the data set on PA-1 [1] (setting [19]) was 0.1 µg/mL (≈ 0.133 µM); in the data set with Caco-2 [7], 0.46 µg/mL (≈ 0.611 µM); in the data set with WRL68 [2] (setting [20]) it was 0.54 µg/mL (≈ 0.717 µM); in the data set with PA-1 [9], 0.45 µg/mL (≈ 0.598 µM); with MCF7 [10], 0.72 µg/mL (≈ 0.957 µM); in the data set on COLO 320 [11] it was 0.12 µg/mL (≈ 0.159 µM). In addition, the concentration for half-maximal inhibition (IC50) in the data set on COLO 320 [3] (setting [21]) amounted to 0.04 µg/mL (≈ 0.0531 µM); in the data set on MCF7 [4] (setting [22]) it was 0.25 µg/mL (≈ 0.332 µM); with Caco-2 [5] (setting [23]), 0.06 µg/mL (≈ 0.0797 µM); in the data set on WRL68 [14], 1.2 µg/mL (≈ 1.59 µM).
In the case of `COC(=O)C1=CO[C@@H](O[C@@H]2O[C@H](COC(c3ccccc3)(c3ccccc3)c3ccccc3)[C@@H](O)[C@H](O)[C@H]2O)[C@@H]2[C@@H](C)[C@@H](O)C[C@H]12` [6'-O-TRITYL LOGANIN], the Activity is reported as 0.4 cm with Bacopa monnieri [6]; 2 in the data set with Bacopa monnieri [8]; “Non-toxic” with Bacopa monnieri [12]; 6 in the data set with Bacopa monnieri [13]; 2 in the data set with Bacopa monnieri [15]. Further, the half-inhibitory concentration (IC50) in the data set with PA-1 [1] (setting [19]) worked out at 0.65 µg/mL (≈ 1.03 µM); in the data set with Caco-2 [7] it was 2.54 µg/mL (≈ 4.01 µM); in the data set on WRL68 [2] (setting [20]) it was 1.86 µg/mL (≈ 2.94 µM); in the data set on PA-1 [9] it was 2.42 µg/mL (≈ 3.82 µM); in the data set with MCF7 [10], 2.8 µg/mL (≈ 4.43 µM); in the data set with COLO 320 [11], 1.4 µg/mL (≈ 2.21 µM). In addition, the IC50 was 0.25 µg/mL (≈ 0.395 µM) in the data set with COLO 320 [3] (setting [21]), 1 µg/mL (≈ 1.58 µM) in the data set with MCF7 [4] (setting [22]), 0.56 µg/mL (≈ 0.885 µM) in the data set with Caco-2 [5] (setting [23]) and 4.2 µg/mL (≈ 6.64 µM) with WRL68 [14].
With `COc1cccc2c1C(=O)c1c(O)c3c(c(O)c1C2=O)C[C@@](O)(C(=O)CO)C[C@@H]3O[C@H]1C[C@H](N)[C@H](O)[C@H](C)O1` [DOXORUBICIN], the Activity in the data set on Bacopa monnieri [6] is listed as 0.2 cm; in the data set on Bacopa monnieri [8], 1; with Bacopa monnieri [12], “Toxic”; in the data set on Bacopa monnieri [13] it was 2; with Bacopa monnieri [15] it was 0.
For the molecule `COC(=O)C1=CO[C@@H](O[C@@H]2O[C@H](CO)[C@@H](O)[C@H](O)[C@H]2O)[C@@H]2[C@@H](C)[C@@H](O)C[C@H]12` [LOGANIN], the Activity in the data set with Bacopa monnieri [6] was 0.4 cm; in the data set on Bacopa monnieri [8] it was 2; in the data set with Bacopa monnieri [12], “Non-toxic”; with Bacopa monnieri [13], 6; in the data set with Bacopa monnieri [15], 2. In addition, the 50% inhibitory concentration (IC50) was found to be 1.45 µg/mL (≈ 3.71 µM) in the data set with PA-1 [1] (setting [19]); 3.45 µg/mL (≈ 8.84 µM) in the data set on Caco-2 [7]; 1.86 µg/mL (≈ 4.76 µM) in the data set with WRL68 [2] (setting [20]); 4.85 µg/mL (≈ 12.4 µM) with PA-1 [9]; 6.45 µg/mL (≈ 16.5 µM) in the data set with MCF7 [10]; 2.2 µg/mL (≈ 5.64 µM) with COLO 320 [11]. Besides, the IC50 with COLO 320 [3] (setting [21]) came to 1 µg/mL (≈ 2.56 µM); in the data set on MCF7 [4] (setting [22]), 4.85 µg/mL (≈ 12.4 µM); with Caco-2 [5] (setting [23]), 1.28 µg/mL (≈ 3.28 µM); in the data set on WRL68 [14], 3.2 µg/mL (≈ 8.2 µM).
With `CC[C@]1(O)C[C@@H]2CN(CCc3c([nH]c4ccccc34)[C@@](C(=O)OC)(c3cc4c(cc3OC)N(C)[C@H]3[C@@](O)(C(=O)OC)[C@H](OC(C)=O)[C@]5(CC)C=CCN6CC[C@]43[C@@H]65)C2)C1` [VINBLASTINE], the Activity in the data set with Bacopa monnieri [6] was 0.6 cm; in the data set on Bacopa monnieri [8], 2; with Bacopa monnieri [12] it was “Non-toxic”; in the data set on Bacopa monnieri [13], 6; with Bacopa monnieri [15], 2. The half-maximal inhibitory concentration (IC50) in the data set on PA-1 [1] (setting [19]) stood at 0.03 µg/mL (≈ 0.037 µM); with Caco-2 [7] it was 2.8 µg/mL (≈ 3.45 µM); in the data set on PA-1 [9] it was 0.15 µg/mL (≈ 0.185 µM); in the data set with COLO 320 [11], 1.6 µg/mL (≈ 1.97 µM); in the data set with COLO 320 [3] (setting [21]), 0.52 µg/mL (≈ 0.641 µM); in the data set on Caco-2 [5] (setting [23]) it was 0.46 µg/mL (≈ 0.567 µM).

As a reminder, the IC50 is the midpoint of a concentration-inhibition curve.

The values are drawn from ChEMBL document CHEMBL3045094, “A cytotoxic agent from Strychnos nux-vomica and biological evaluation of its modified analogues” (Med Chem Res, 2012).
